In US20060024414A1, “Methods for preserving food products” (Kraft Foods Holdings, Inc., priority 2004, published 2006):

Tests used:
Listeria monocytogenes [1] = settings: model milk system; Payne et al. 1989; cited from earlier work
[2] = tested on: Listeria monocytogenes OSY-328; assay: Inoculated bagged Vienna sausage challenge, warm enrichment/plating for survivors; format: cell-based; settings: about 5 min; for Percentage of Bags Testing Positive For Listeria in Batch of 5 (±S.D.): sausage about 10^6 CFU/g; for Percentage of Bags Testing Positive For Listeria in Batch of 3 (±S.D.): TBHQ 300 ppm, sausage about 10^6 per g
Method: (§1) In another embodiment, a food substrate processed according to methods of this invention has nondetectable levels of Listeria (even if contamination has occurred). […] The mixture is incubated at 37° C. for 48 hours, followed by the enrichment (mixture) being streaked on Oxford agar or […] agar, and observing the streaked plate for the presence/absence of Listeria. […] Tailing effects also may be reduced or eliminated by methods of the present invention. The presence or absence of other microorganisms may be detected using similar techniques modified for the specific microorganism under consideration. The edible hydroquinone was tert-butylhydroquinone (TBHQ) at a level of either 0 or 100 ppm. The tert-butylhydroquinone was a food grade material obtained from Sigma Chemical Co. (St. Louis, Mo.). The lantibiotic was nisin at a level of either 0 or 100 IU/g. The nisin used was either pure nisin or a commercial nisin ([…]®), both from Aplin & Barrett, Ltd. (Trowbridge, England). […] Nisin samples were prepared by dissolving nisin powder in distilled water, adjusting the pH to 2 with HCl, and sterilizing at 121° C. for 10 minutes. Samples were prepared and used on the same day for each experiment. Three strains of Listeria monocytogenes were used in these challenge studies. Listeria monocytogenes Scott A, OSY-8578, and OSY-328, were obtained from the Food Safety Laboratory of the Department of Food Science and Technology at The Ohio State University (Columbus, Ohio). All experiments were carried out with cultures in stationary phase (grown in tryptose broth (TB; Difco Laboratories, Detroit, Mich.) for 18 hours at 37° C.). […] The hydrostatic pressure used was 600 MPa. For comparison purposes, samples were also treated with no hydrostatic pressure (i.e., under atmospheric pressure). A hydrostatic food processor (Quintus QFP-6, ABB Autoclave Systems, Inc., Columbus, Ohio) was used with a pressure transmitting fluid containing a water/propylene glycol (1:1 vol/vol; Houghto-Safe 620-TY, Houghton International, Inc., Valley Forge, Pa.). Samples were held in a refrigerator before processing and placed on ice following treatment. The temperature during each run was monitored using a thermocouple and a datalogger (Campbell Scientific, Inc., Logan, Utah). […] Canned Vienna sausage (Armour®, The Dial Corporation, Scottsdale, Ariz.) was purchased from local grocery stores. […] One milliliter of each additive, alone or in combinations, was added, and the bags were sealed using vacuum […], Kansas City, Mo.). […] Non-pressurized samples were treated in a similar manner except that no pressure was applied. After high pressure processing, bags were opened aseptically. […] The presence or absence of L. monocytogenes survivors in the samples was determined by streaking the incubated mixture onto Oxford agar and/or […] agar. Each test run consisted of 5 tested bags at a given set of variables; the experiment was repeated 4 times. Treatment conditions required for essentially total elimination of L. monocytogenes were determined using essentially the same materials and procedures as used in Example 1 except that the nisin level was 0, 100, or 200 IU/g; the hydroquinone level was 0, 100, 200, or 300 ppm; and each experiment was repeated 3 times.

[3] = tested on: Listeria monocytogenes OSY-8578; assay: as above; format: cell-based; settings: about 5 min; for Percentage of Bags Testing Positive For Listeria in Batch of 5 (±S.D.): sausage about 10^6 CFU/g; for Percentage of Bags Testing Positive For Listeria in Batch of 3 (±S.D.): TBHQ 300 ppm, sausage about 10^6 per g
Method: as §1

[4] = tested on: Listeria monocytogenes Scott A; assay: as above; format: cell-based; settings: about 5 min; for Percentage of Bags Testing Positive For Listeria in Batch of 5 (±S.D.): sausage about 10^6 CFU/g; for Percentage of Bags Testing Positive For Listeria in Batch of 3 (±S.D.): TBHQ 300 ppm, sausage about 10^6 per g
Method: as §1

[5] = tested on: Listeria monocytogenes strains; assay: Tailing behaviour during pressure treatment in phosphate buffer; format: cell-based; settings: combination of high pressure (300, 500, 700 MPa) and TBHQ about 100 ppm
Method: (§2) Three strains of Listeria monocytogenes identified in Example 1 were grown in tryptose broth for 18 hours at 37° C. Cultures were centrifuged at 10,000 rpm for 15 minutes at 4° C. Cell pellets were resuspended in phosphate buffer (pH 7.0) and the cell population of each strain was adjusted to 10^9 CFU/ml. Tert-butylhydroquinone was added at about 100 ppm (10% vol/vol TBHQ/culture). Preparation of sample bags and the high pressure treatment procedures were same as indicated in Example 1. Pressures tested were 300, 500, and 700 MPa. Control and high pressure-treated treated samples were serially diluted in 0.1% peptone water and spread-plated on tryptose agar. The plates were incubated at 37° C. for 48-72 hours and the colonies were counted.
(§3) The detection level for enumeration was 10 CFU/ml. The initial population of OSY-328 averaged about 8.9 logs; therefore, more than 7.9 log reduction indicates below the detection level.

[6] = tested on: Listeria monocytogenes OSY-328; assay: Pressure inactivation in phosphate buffer, plate count; format: cell-based; settings: TBHQ about 100 ppm
Method: as §2, §3

[7] = tested on: Listeria monocytogenes OSY-8578; assay: as above; format: cell-based; settings: TBHQ about 100 ppm
Method: as §2, §3

[8] = tested on: Listeria monocytogenes Scott A; assay: as above; format: cell-based; settings: TBHQ about 100 ppm
Method: as §2, §3

Listeria monocytogenes [9] = settings: cells sensitized with the antioxidant at the time of pressure treatment; Mackey et al. 1995; cited from earlier work
[10] = Run 3: 0 MPa, nisin 0 IU/g, TBHQ 100 ppm
[11] = Run 7: 600 MPa, nisin 0 IU/g, TBHQ 100 ppm
[12] = 300 MPa, 0 min (come-up, immediate depressurization)
[13] = 500 MPa, 0 min (come-up, immediate depressurization)
[14] = 700 MPa, 0 min (come-up, immediate depressurization)
[15] = Run 2: 0 MPa, nisin 100 IU/g, TBHQ 0 ppm
[16] = Run 6: 600 MPa, nisin 100 IU/g, TBHQ 0 ppm

## CCCOC(=O)c1ccc(O)cc1 [Propyl paraben]
Listeria monocytogenes [1]
  antimicrobial activity against Listeria monocytogenes: only consistently active inhibitor

## CC(C)(C)c1cc(O)ccc1O [TBHQ, tert-butylhydroquinone]
[2]; [10]
  Percentage of Bags Testing Positive For Listeria in Batch of 5 (±S.D.): 100%
[2]; [11]
  Percentage of Bags Testing Positive For Listeria in Batch of 5 (±S.D.): 20 (±16) %
[2]; Run 10: 0 MPa, nisin 0 IU/g
  Percentage of Bags Testing Positive For Listeria in Batch of 3 (±S.D.): 100%
[2]; Run 15: 600 MPa, nisin 0 IU/g
  Percentage of Bags Testing Positive For Listeria in Batch of 3 (±S.D.): 0%
[3]; [10]
  Percentage of Bags Testing Positive For Listeria in Batch of 5 (±S.D.): 100%
[3]; [11]
  Percentage of Bags Testing Positive For Listeria in Batch of 5 (±S.D.): 25 (±30) %
[3]; Run 10: 0 MPa, nisin 0 IU/g
  Percentage of Bags Testing Positive For Listeria in Batch of 3 (±S.D.): 100%
[3]; Run 15: 600 MPa, nisin 0 IU/g
  Percentage of Bags Testing Positive For Listeria in Batch of 3 (±S.D.): 0%
[4]; [10]
  Percentage of Bags Testing Positive For Listeria in Batch of 5 (±S.D.): 100%
[4]; [11]
  Percentage of Bags Testing Positive For Listeria in Batch of 5 (±S.D.): 15 (±30) %
[4]; Run 10: 0 MPa, nisin 0 IU/g
  Percentage of Bags Testing Positive For Listeria in Batch of 3 (±S.D.): 100%
[4]; Run 15: 600 MPa, nisin 0 IU/g
  Percentage of Bags Testing Positive For Listeria in Batch of 3 (±S.D.): 0%
[5]
  tailing phenomenon: eliminated the tailing phenomenon
[6]; [12]
  Average Log Reduction: 0 log
[6]; 300 MPa, 1 min
  Average Log Reduction: 0 log
[6]; 300 MPa, 5 min
  Average Log Reduction: 0 log
[6]; 300 MPa, 10 min
  Average Log Reduction: 0.2 log
[6]; 300 MPa, 20 min
  Average Log Reduction: 1.0 log
[6]; 300 MPa, 30 min
  Average Log Reduction: 1.6 log
[6]; 300 MPa, 40 min
  Average Log Reduction: 2.3 log
[6]; 300 MPa, 50 min
  Average Log Reduction: 2.4 log
[6]; 300 MPa, 60 min
  Average Log Reduction: 3.1 log
[6]; [13]
  Average Log Reduction: 0.2 log
[6]; 500 MPa, 5 min
  Average Log Reduction: 7.6 log
[6]; 500 MPa, 10 min
  Average Log Reduction: 7.8 log
[6]; 500 MPa, 20 min
  Average Log Reduction: ≧7.9 log
[6]; 500 MPa, 30 min
  Average Log Reduction: 7.8 log
[6]; 500 MPa, 40 min
  Average Log Reduction: ≧7.9 log
[6]; 500 MPa, 50 min
  Average Log Reduction: ≧7.9 log
[6]; [14]
  Average Log Reduction: 5.3 log
[6]; 700 MPa, 1 min
  Average Log Reduction: ≧8.0 log
[6]; 700 MPa, 5 min
  Average Log Reduction: ≧8.0 log
[6]; 700 MPa, 10 min
  Average Log Reduction: ≧7.9 log
[6]; 700 MPa, 15 min
  Average Log Reduction: ≧7.9 log
[6]; 700 MPa, 20 min
  Average Log Reduction: 7.8 log
[6]; 700 MPa, 30 min
  Average Log Reduction: ≧8.0 log
[7]; [12]
  Average Log Reduction: 0 log
[7]; 300 MPa, 1 min
  Average Log Reduction: 0.2 log
[7]; 300 MPa, 5 min
  Average Log Reduction: 0.2 log
[7]; 300 MPa, 10 min
  Average Log Reduction: 0.8 log
[7]; 300 MPa, 20 min
  Average Log Reduction: 3.8 log
[7]; 300 MPa, 30 min
  Average Log Reduction: 5.0 log
[7]; 300 MPa, 40 min
  Average Log Reduction: 5.7 log
[7]; 300 MPa, 50 min
  Average Log Reduction: 7.2 log
[7]; [13]
  Average Log Reduction: 0.2 log
[7]; 500 MPa, 1 min
  Average Log Reduction: 7.2 log
[7]; 500 MPa, 5 min
  Average Log Reduction: 7.6 log
[7]; 500 MPa, 10 min
  Average Log Reduction: ≧8.0 log
[7]; 500 MPa, 20 min
  Average Log Reduction: 7.9 log
[7]; 500 MPa, 30 min
  Average Log Reduction: 7.8 log
[7]; 500 MPa, 40 min
  Average Log Reduction: ≧8.0 log
[7]; [14]
  Average Log Reduction: 7.6 log
[7]; 700 MPa, 0.5 min
  Average Log Reduction: 7.7 log
[7]; 700 MPa, 1 min
  Average Log Reduction: 7.8 log
[7]; 700 MPa, 5 min
  Average Log Reduction: ≧8.0 log
[7]; 700 MPa, 10 min
  Average Log Reduction: ≧8.0 log
[7]; 700 MPa, 15 min
  Average Log Reduction: ≧8.0 log
[7]; 700 MPa, 20 min
  Average Log Reduction: ≧8.0 log
[8]; [12]
  Average Log Reduction: 0 log
[8]; 300 MPa, 1 min
  Average Log Reduction: 0 log
[8]; 300 MPa, 5 min
  Average Log Reduction: 2.2 log
[8]; 300 MPa, 10 min
  Average Log Reduction: 6.5 log
[8]; 300 MPa, 20 min
  Average Log Reduction: 7.3 log
[8]; 300 MPa, 30 min
  Average Log Reduction: 7.3 log
[8]; 300 MPa, 40 min
  Average Log Reduction: ≧8.0 log
[8]; [13]
  Average Log Reduction: 3.8 log
[8]; 500 MPa, 1 min
  Average Log Reduction: 7.9 log
[8]; 500 MPa, 5 min
  Average Log Reduction: 8.0 log
[8]; 500 MPa, 10 min
  Average Log Reduction: ≧8.0 log
[8]; 500 MPa, 15 min
  Average Log Reduction: ≧8.0 log
[8]; 500 MPa, 20 min
  Average Log Reduction: ≧8.0 log
[8]; 500 MPa, 30 min
  Average Log Reduction: ≧8.0 log
[8]; [14]
  Average Log Reduction: 7.7 log
[8]; 700 MPa, 0.5 min
  Average Log Reduction: 7.5 log
[8]; 700 MPa, 1 min
  Average Log Reduction: ≧8.0 log
[8]; 700 MPa, 2 min
  Average Log Reduction: ≧8.0 log
[8]; 700 MPa, 5 min
  Average Log Reduction: ≧8.0 log
[8]; 700 MPa, 10 min
  Average Log Reduction: ≧8.0 log
[8]; 700 MPa, 15 min
  Average Log Reduction: ≧8.0 log

## nisin (ITSISLCTPGCKTGALMGCNMKTATCHCSIHVSK; not fully specified; Lantibiotic nisin-A; UniProt P13068 24-57, looked up) [lantibiotic; antimicrobial polypeptide produced by Lactococcus lactis; pure nisin or commercial Nisaplin from Aplin & Barrett]
[2]; [15]
  Percentage of Bags Testing Positive For Listeria in Batch of 5 (±S.D.): 100%
[2]; [16]
  Percentage of Bags Testing Positive For Listeria in Batch of 5 (±S.D.): 10 (±20) %
[3]; [15]
  Percentage of Bags Testing Positive For Listeria in Batch of 5 (±S.D.): 100%
[3]; [16]
  Percentage of Bags Testing Positive For Listeria in Batch of 5 (±S.D.): 30 (±38) %
[4]; [15]
  Percentage of Bags Testing Positive For Listeria in Batch of 5 (±S.D.): 100%
[4]; [16]
  Percentage of Bags Testing Positive For Listeria in Batch of 5 (±S.D.): 15 (±19) %

## Cc1cc(C(C)(C)C)c(O)c(C(C)(C)C)c1 [BHT, Butylated hydroxy toluene]
Listeria monocytogenes [9]
  resistance of Listeria monocytogenes to high hydrostatic pressure treatment (sensitizing effect): not effective

## COc1ccc(O)c(C(C)(C)C)c1 [BHA, butylated hydroxyanisole]
Listeria monocytogenes [9]
  resistance of Listeria monocytogenes to high hydrostatic pressure treatment (sensitizing effect): reduced
